Measured values from patent publication US10857110B2, “Antibacterial compounds” (CONSEJO NACIONAL DE INVESTIGACIONES CIENTÍFICAS Y TÉCNICAS …, priority 2016, dated 2020).
Like-named read-outs stand apart in the source and are kept apart here.

Tests used:
Test in all cases: MIC/MBC antibiotic sensitivity (CLSI)
[1] = system: B. contaminans (HNBC001); assay type: cell-based; conditions: CLSI criteria, read-out: MIC (R/I/S category)
Experimental: (§1) The new compounds of the invention were synthesized following the general method of preparation (Tetrahedron, 2001, 57, 1671-1675), from the reaction between an intermediary compound of the acyl thiourea and HgCl2 in presence of trimethylamine. The products were adequately characterized regarding its chemistry. The antibacterial activity of the new compounds was assayed against two Gram-positive reference strains: Staphylococcus aureus (ATCC6538) and Bacillus cereus (ATCC10876), a fermenting Gram-negative strain: Escherichia coli (ATCC25922), and 26 non-fermenting Gram-negative isolates, including 3 reference strains: Pseudomonas aeruginosa (PAO1), Bordetella bronchiseptica (9.73H+), and Inquilinus limosus (DSM16000), and 23 isolates recovered from patients suffering from cystic fibrosis, including one Achromobacter xylosoxidans isolate, and 22 isolates belonging to the Burkholderia cepacia complex. The later were selected because they presented resistance to a high number of antimicrobial compounds, among a panel of 125 clinical isolates previously analyzed for its resistance against 17 antimicrobial compounds (1,2). The antibiotic sensitivity studies were performed by applying two quantitative methods which allow to determine the minimum inhibitory concentration (MIC) and the minimum bactericidal concentration (MBC).
(§2) The compounds obtained in Examples 1 and 2 were assayed against 23 isolates recovered from the sputum of patients suffering from cystic fibrosis being treated at the Sor Maria Ludovica Children Hospital (La Plata, Buenos Aires, Argentina). Nineteen of these isolates were selected for being highly resistant to most of the antimicrobial agents of clinical use from a panel of 125 isolates previously characterized in Martina et al. (1). Reference strains were also included: Gram (+) bacteria: B. cereus and S. aureus, fermenting Gram (−) bacteria: E. coli, and non-fermenting Gram (−) bacteria: Inquilinus limosus (DSM16000), B. bronchiseptica, and Pseudomonas aeruginosa (PAO1). The antibiotic sensitivity studies were performed applying two quantitative methods which allow to determine the minimum inhibitory concentration (MIC) and the minimum bactericidal concentration (MBC) according to the criteria established by the Clinical and Laboratory Standards Institute (CLSI) (4). For comparative purposes, three antibiotics commonly used in the treatment of pulmonary infections in cystic fibrosis patients were included in the study: tobramycin, ceftazidime and meropenem.

[2] = system: Pseudomonas aeruginosa (PAO1); assay type: cell-based; conditions: Pseudomonas aeruginosa, P. aeruginosa (PAO1); for MBC: read-out: MBC; for MIC: read-out: MIC
Experimental: as §1, §2

[3] = system: Burkholderia multivorans (CBC 020); assay type: cell-based; conditions: for MIC: Burkholderia multivorans, CLSI criteria, B. multivorans (CBC 020), read-out: MIC (R/I/S category)
Experimental: as §1, §2

[4] = system: Burkholderia multivorans (CBC 019); assay type: cell-based; conditions: for MIC: Burkholderia multivorans, CLSI criteria, B. multivorans (CBC 019), read-out: MIC (R/I/S category)
Experimental: as §1, §2

[5] = system: Burkholderia multivorans (CBC 016); assay type: cell-based; conditions: Burkholderia multivorans, CLSI criteria, B. multivorans (CBC 016), read-out: MIC (R/I/S category)
Experimental: as §1, §2

[6] = system: Bacillus cereus (ATCC10876); assay type: cell-based; conditions: for MBC: read-out: MBC; for MIC: read-out: MIC
Experimental: as §1, §2

[7] = system: Burkholderia cenocepacia (CBC 031); assay type: cell-based; conditions: Burkholderia cenocepacia, CLSI criteria, B. cenocepacia (CBC 031), read-out: MIC (R/I/S category)
Experimental: as §1, §2

[8] = system: Burkholderia cenocepacia (CBC 033); assay type: cell-based; conditions: Burkholderia cenocepacia, CLSI criteria, B. cenocepacia (CBC 033), read-out: MIC (R/I/S category)
Experimental: as §1, §2

[9] = system: Inquilinus limosus (DSM16000); assay type: cell-based
Experimental: as §1, §2

[10] = system: Burkholderia cenocepacia (CBC 023); assay type: cell-based; conditions: Burkholderia cenocepacia, CLSI criteria, B. cenocepacia (CBC 023), read-out: MIC (R/I/S category)
Experimental: as §1, §2

[11] = system: Burkholderia cepacia (CBC 010); assay type: cell-based; conditions: for MIC: Burkholderia cepacia, CLSI criteria, B. cepacia (CBC 010), read-out: MIC (R/I/S category)
Experimental: as §1, §2

[12] = system: Burkholderia cenocepacia (CBC 032); assay type: cell-based; conditions: Burkholderia cenocepacia, CLSI criteria, B. cenocepacia (CBC 032), read-out: MIC (R/I/S category)
Experimental: as §1, §2

[13] = system: Burkholderia multivorans (CBC 021); assay type: cell-based; conditions: for MIC: Burkholderia multivorans, CLSI criteria, B. multivorans (CBC 021), read-out: MIC (R/I/S category)
Experimental: as §1, §2

[14] = system: Staphylococcus aureus (ATCC6538); assay type: cell-based; conditions: Staphylococcus aureus, S. aureus (ATCC6538); for MBC: read-out: MBC; for MIC: read-out: MIC
Experimental: as §1, §2

[15] = system: Burkholderia seminalis (CBC 040); assay type: cell-based; conditions: Burkholderia seminalis, CLSI criteria, B. seminalis (CBC 040), read-out: MIC (R/I/S category)
Experimental: as §1, §2

[16] = system: Burkholderia seminalis (CBC 042); assay type: cell-based; conditions: Burkholderia seminalis, CLSI criteria, B. seminalis (CBC 042), read-out: MIC (R/I/S category)
Experimental: as §1, §2

[17] = system: Burkholderia cenocepacia (CBC 035); assay type: cell-based; conditions: for MIC: Burkholderia cenocepacia, CLSI criteria, B. cenocepacia (CBC 035), read-out: MIC (R/I/S category)
Experimental: as §1, §2

[18] = system: Burkholderia cepacia (CBC 011); assay type: cell-based; conditions: for MIC: Burkholderia cepacia, CLSI criteria, B. cepacia (CBC 011), read-out: MIC (R/I/S category)
Experimental: as §1, §2

[19] = system: Burkholderia cenocepacia (CBC 029); assay type: cell-based; conditions: Burkholderia cenocepacia, CLSI criteria, B. cenocepacia (CBC 029), read-out: MIC (R/I/S category)
Experimental: as §1, §2

[20] = system: Bordetella bronchiseptica (9.73H+); assay type: cell-based; conditions: B. bronchiseptica (9.73H+); for MBC: read-out: MBC; for MIC: read-out: MIC
Experimental: as §1, §2

[21] = system: Escherichia coli (ATCC25922); assay type: cell-based; conditions: Escherichia coli, E. coli (ATCC25922); for MBC: read-out: MBC; for MIC: read-out: MIC
Experimental: as §1, §2

[22] = system: Burkholderia cenocepacia (CBC 024); assay type: cell-based; conditions: Burkholderia cenocepacia, CLSI criteria, B. cenocepacia (CBC 024), read-out: MIC (R/I/S category)
Experimental: as §1, §2

[23] = system: Burkholderia multivorans (CBC 015); assay type: cell-based; conditions: for MIC: Burkholderia multivorans, CLSI criteria, B. multivorans (CBC 015), read-out: MIC (R/I/S category)
Experimental: as §1, §2

[24] = system: B. cenacepacia (FQC2524); assay type: cell-based, B. cenocepacia; conditions: Burkholderia cenocepacia, CLSI criteria, read-out: MIC (R/I/S category)
Experimental: as §1, §2

C[C@@H](O)[C@H]1C(=O)N2C(C(=O)O)=C(S[C@@H]3CN[C@H](C(=O)N(C)C)C3)[C@H](C)[C@H]12 [Meropenem, meropenem]
< 0.48 µg/mL: MBC [2] | MIC [2] | MBC [6] | MIC [6] | MBC [9] | MIC ([9]; read-out: MIC) | MBC [14] | MIC [14] | MBC [20] | MIC [20] | MBC [21] | MIC [21]
7.81 µg/mL: MBC ([4]; Burkholderia multivorans (CBC 019)) | MBC ([13]; Burkholderia multivorans (CBC 021))
> 62.5 µg/mL: MBC ([18]; Burkholderia cepacia (CBC 011))
> 16 µg/mL: MIC ([1]; Meropenem) | MIC ([5]; Meropenem) | MIC ([7]; Meropenem) | MIC ([8]; Meropenem) | MIC ([10]; Meropenem) | MIC ([12]; Meropenem) | MIC ([15]; Meropenem) | MIC ([16]; Meropenem) | MIC ([19]; Meropenem) | MIC ([22]; Meropenem)
3.9 µg/mL: MBC ([11]; Burkholderia cepacia (CBC 010)) | MBC ([23]; Burkholderia multivorans (CBC 015), read-out: MBC)
15.6 µg/mL: MBC ([17]; Burkholderia cenocepacia (CBC 035), read-out: MBC)
< 4 µg/mL: MIC ([3]; Meropenem) | MIC ([4]; Meropenem) | MIC ([11]; Meropenem) | MIC ([13]; Meropenem) | MIC ([17]; Meropenem) | MIC ([18]; Meropenem) | MIC ([23]; Meropenem) | MIC ([24]; Meropenem)
31.2 µg/mL: MBC ([3]; Burkholderia multivorans (CBC 020))

NC[C@H]1O[C@H](O[C@H]2[C@H](O)[C@@H](O[C@H]3O[C@H](CO)[C@@H](O)[C@H](N)[C@H]3O)[C@H](N)C[C@@H]2N)[C@H](N)C[C@@H]1O [Tobramucin, tobramycin]
1.95 µg/mL: MBC [2] | MIC [2] | MBC [14] | MIC [14]
62.5 µg/mL: MBC [20] | MIC [20]
31.2 µg/mL: MBC [6]
7.81 µg/mL: MIC [6]
> 16 µg/mL: MIC ([1]; Tobramucin) | MIC ([3]; Tobramucin) | MIC ([4]; Tobramucin) | MIC ([5]; Tobramucin) | MIC ([7]; Tobramucin) | MIC ([8]; Tobramucin) | MIC ([9]; Tobramucin, CLSI criteria, read-out: MIC (R/I/S category)) | MIC ([10]; Tobramucin) | MIC ([11]; Tobramucin) | MIC ([12]; Tobramucin) | MIC ([13]; Tobramucin) | MIC ([15]; Tobramucin) | MIC ([16]; Tobramucin) | MIC ([17]; Tobramucin) | MIC ([18]; Tobramucin) | MIC ([19]; Tobramucin) | MIC ([22]; Tobramucin) | MIC ([23]; Tobramucin) | MIC ([24]; Tobramucin)
15.6 µg/mL: MBC [21] | MIC [21]
